Source: patent publication US12385042B2, “Cell-penetrating peptides” (VECTIOPEP OÜ, priority 2019, dated 2025)
Where a SMILES comes first, the peptide text is derived from it. Bridges are numbered along the chain shown (N, C = ends). Roman numbers before positions name the chains, in order. [ ]: non-standard residue; d: D form. The star is where a group is joined. Arachidoyl = CCCCCCCCCCCCCCCCCCCC(=O)*; Stearoyl = CCCCCCCCCCCCCCCCCC(=O)*; Orn = NCCC[C@H](N)C(=O)O

Legend:
murine red blood cells = test: Membrane activity assay on murine red blood cells: hemolysis; assay type: cell-based, mouse; settings: for HC50 Free peptide: pH 7.5; for pH dependent hemolytic activity (in words): buffer pH 5.5-7.5
Procedure: For evaluation of membrane activity of peptides, hemolysis assay was used. For this whole blood was collected from mouse (adult, BALB/c) saphenous vein into a heparinized collection tube. Blood was centrifuged (2300× g, 15 min) to separate cells (red blood cells-RBC) from the plasma. RBCs were washed according to following procedures.
RBCs were washed with 10 ml 0.9% NaCl saline and centrifuged (600× g, 15 min). Supernatant was discarded after each centrifugation. This was repeated at least 3 times. RBCs were re-suspended in 5 ml saline and distributed equally to tubes and centrifuged (600× g, 15 min). The cells were washed and re-suspended in 2× PBS with the required pH (pH 5.5-7.5). The hemoglobin content in stocks was measured after lysis of cells with equal volume of 0.1% Triton X100 supplemented with 5% glucose. The cell suspension was diluted accordingly for each pH value to obtain similar concentration range of hemoglobin in stocks. To each 100 ul of peptide solution 100 ul of 10% glucose was added, mixed, and equal volume (200 ul) of RBC in 2× PBS were added and gently mixed. Peptide solution with RBCs was incubated at 37° C. for 1 h with gentle mixing (max 300 rpm) after which samples were centrifuged to pellet intact cells from the solution. Hemoglobin from lysed cells was determined from each sample from the supernatant on transparent 96-well plates by measuring the absorbance at 540 nm.
Controls were incubated in similar manner as samples. As a non-hemolysis control mQ supplemented with glucose (0%) was used and for hemolytic control 0.1% TritonX-100 with glucose (100%) was used (cells are suspended in 2× PBS before addition). Final percent was calculated as follows: […]
For hemolytic concentration determination 2× PBS at pH 7.5 was used for incubation and 1× PBS at pH 7.5 was used for washing. Everything else is as described in previous paragraph.

[1] = Fluorescent dye (PicoGreen) intercalation and heparin displacement assay of CPP/siRNA complexes; assay type: physicochemical
Procedure: Complexation of siRNA and CPPs was assessed by Quant-iT™ PicoGreen® (PG) (Thermo Fisher Scientific, USA) assay in mQ water. Complexes were prepared as described previously, following addition of diluted PG. For detection, complexes (⅕ of volume), water (3/5) and PG (1/5) working dilution was incubated for 5 minutes and fluorescence was measured by fluorimeter (λex=492 nm, λem=535 nm) (SynergyMx, BioTek). For heparin displacement, instead of water, heparin salt solution at different concentrations were used and complexes incubated at 37° C. for 30 min before addition of PG dilution. Complex formation was also confirmed by gel electrophoresis (details in section 2.11).

[2] = Negative staining TEM of CPP/siRNA nanoparticles; assay type: physicochemical; settings: CPP/siRNA complexes at MR30
Procedure: For the morphological analysis the CPP/siRNA complexes were assembled as described above at MR30. For negative staining, copper grids were covered with Formvar film and carbon layer using Leica EM ACE600 carbon coater (Leica Microsystems, Germany). Then, 10 μL of each sample was absorbed to the grids for 2 min and excess of solution was gently removed. Samples were then exposed to 2% aqueous uranyl acetate solution for 1 min. After removing excess stain with filter paper, the samples were allowed to air-dry. The samples were examined at 120 kV accelerating voltage on FEI Tecnai G2 Spirit electron microscope (FEI, The Netherlands).

[3] = test system: U87 MG-luc2 human glioma cells, stably expressing luc2; test: Luciferase gene downregulation by CPP/siRNA (siLuc2) complexes; assay type: cell-based; settings: for Red (%) (reduction, based on remaining luminescence on U87 cells post-treatment) / luciferase downregulation efficiency (in words): CPP/siRNA complexes; for Red (%) (reduction, based on remaining luminescence on U87 cells post-treatment): siRNA against luciferase; for luciferase downregulation efficiency (in words): comparison between CPPs
Procedure: (§1) For assessing the siRNA mediated RNAi, CHO-GFP or U87-luc2 cells (5×10^5 cells per well) were seeded on a 24-well plate a day prior to the experiment and grown in serum containing media. On experiment day, prior to adding pre-formed complexes ( 1/10th of the final volume per well), media was replaced with fresh serum containing medium.
(§2) For complex formation, peptide was mixed with luc2 siRNA (sense 5′-[…]-3′ (SEQ ID NO:7), antisense 5′-[…] 3′ (SEQ ID NO:8), Metabion, Germany) or with siRNA against GFP (5′-[…] (SEQ ID NO:9), 3′-[…] (SEQ ID NO:10)) in mQ water (pH 5.3-6.3) using peptide to siRNA molar ratios (MR is the ratio of peptide to siRNA) […] and incubated at RT for 1 h. For siLuc2, the final concentration in media was 25 nM and for siGFP 100 nM. Cells were co-incubated with complexes for 4 h (37° C., 5% CO2), thereafter fresh serum containing media was added and followed by further incubation (20 h for siLuc2 or 44 h for siGFP complexes). Luciferase gene downregulation was measured from cell lysates with Promega luciferase assay system (Promega, Sweden) in combination with GLOMAX 96 microplate luminometer equipped with GLOMAX 1.9.2 software (Promega). GFP was measured after treatment from cell lysates on black 96-well plates by measuring total fluorescence (Symergy MX, BioTek Instruments, USA equipped with Gen5 1.10 software). The results were normalized to the protein content of each sample (DC Protein Assay, BioRad, USA).
Luciferase activity was determined as described in previous paragraph.
For determination of pH dependency on the transfection efficiency, complexes were formed at MR30, incubated and diluted before addition to cells to obtain siRNA final concentration 10 nM in transfection media. HEPES buffer supplemented with 10% FBS was used as transfection media. Complexes were co-incubated with cells for 4 h and then media was replaced with cell growth media. After further 20 h incubation cells were lysed and analyzed as described previously.
The experiment was carried out in serum containing media (10% FBS). CPP/siRNA complexes were formed at different molar ratios with siRNA concentration kept constant (50 nM in transfection media). Luminescence from luciferin-luciferase reaction was measured at 24 hours post-treatment from cell lysate. Results were normalized to protein content and luminescence values from untreated cells (100%).

[4] = test system: CHO stably expressing green fluorescent protein (GFP); test: GFP gene downregulation by CPP/siGFP complexes (lysate fluorescence, FACS, confocal); assay type: cell-based
Procedure: as §1, §2
For flow cytometry analysis (FACS) analysis CHO-GFP cells were seeded and treated as described previously. After incubation, cells were washed with 1× PBS and detached from plates with trypsin-EDTA (0.25%), and re-suspended in PBS supplemented with FBS (5%) and transferred to transparent U-bottom 96-well plates. FACS was carried out with BD LSR II flow cytometer (BD Biosciences, San Jose, CA, USA) equipped with a 488 nm argon laser. Population of viable cells was determined from scatter plot: forward scattered plot (FSC) vs. side scattered light (SSC) plot. A minimum of 10,000 events from the viable cell population per sample were analyzed using BD FACS Diva software. Results are shown as the population with GFP signal lower than that of 0.1% of untreated cells.
For confocal microscopy 2×10^5 cells per chamber were seeded on NUNC 8-chamber plates. After treatment with complexes (25 ul of pre-formed CPP/siRNA complexes added to cells in 225 ul serum containing media), incubated (48 h) and GFP florescence images of cells were captured using confocal microscope Zeiss LSM 710 and excitation at 488 nm (493-616 filter).

Row | Compound | HC50 CPP/siRNA complex (peptide concentration) (murine red blood cells; CPP/siRNA complexes at MR30) [µM] | HC50 Free peptide (murine red blood cells; free peptide) [µM] | increase of hemolytic activity at pH 5.5 (murine red blood cells; peptide 0.75 uM, buffer pH 5.5) [%] | pH dependent hemolytic activity (in words) (murine red blood cells; peptide 0.75 uM) | siRNA accessible ([1]; 0.5 mg/ml heparin, complexes pre-formed at MR30) [%] | length or size of elongated particles, conglomerates or aggregates (TEM) [2] | nanoparticle diameter / size (TEM) [2] | Red (%) (reduction, based on remaining luminescence on U87 cells post-treatment) [3] | hemolytic activity of free peptide (in words) (murine red blood cells; free peptide, up to 10 uM) | cells with downregulated reporter gene (GFP signal below threshold), FACS ([4]; CHO-GFP, CPP/siGFP complexes) [%] | GFP signal in confocal images ([4]; live cells treated with CPP/siGFP complexes) | accessibility of siRNA in complexes (dye intercalation) ([1]; MR30, no heparin) | luciferase downregulation efficiency (in words) [3] | remaining reporter activity ([3]; molar ratio 30 (MR30, peptide to siRNA), untreated cells 100%) [%]
1 | CCCCCCCCCCCCCCCCCC(=O)N[C@@H](C)C(=O)NCC(=O)N[C@@H](Cc1ccc(O)cc1)C(=O)N[C@@H](CC(C)C)C(=O)N[C@@H](CC(C)C)C(=O)NCC(=O)NCCC[C@H](N)C(=O)N[C@H](C(=O)N[C@@H](CC(N)=O)C(=O)N[C@@H](CC(C)C)C(=O)N[C@@H](CCCCN)C(=O)N[C@@H](C)C(=O)N[C@@H](CC(C)C)C(=O)N[C@@H](C)C(=O)N[C@@H](C)C(=O)N[C@@H](CC(C)C)C(=O)N[C@@H](C)C(=O)N[C@@H](CCCCN)C(=O)N[C@@H](C)C(=O)N[C@H](C(=O)N[C@@H](CC(C)C)C(N)=O)[C@@H](C)CC)[C@@H](C)CC [NF55, reference compound] (I: H-[Orn]INLKALAALAKAIL-NH2 / II: Stearoyl-AGYLLG; amide I:1-II:C) | 3.2 | 1.7 | 25 | least influenced by the pH decrease | 10 | up to 100 nm | 10-50 nm | 75 |  |  |  |  |  | 
2 | CCCCCCCCCCCCCCCCCCCC(=O)N[C@@H](Cc1c[nH]cn1)C(=O)N[C@@H](Cc1c[nH]cn1)C(=O)N[C@@H](Cc1c[nH]cn1)C(=O)N[C@@H](Cc1c[nH]cn1)C(=O)N[C@@H](Cc1c[nH]cn1)C(=O)N[C@@H](Cc1c[nH]cn1)C(=O)N[C@@H](Cc1ccc(O)cc1)C(=O)N[C@@H](Cc1c[nH]cn1)C(=O)N[C@@H](Cc1c[nH]cn1)C(=O)NCC(=O)NCCC[C@H](N)C(=O)N[C@H](C(=O)N[C@@H](CC(C)C)C(=O)N[C@@H](CC(C)C)C(=O)N[C@@H](CCCCN)C(=O)N[C@@H](C)C(=O)N[C@@H](CC(C)C)C(=O)N[C@@H](CCCCN)C(=O)N[C@@H](C)C(=O)N[C@@H](CC(C)C)C(=O)N[C@@H](C)C(=O)N[C@@H](CCCCN)C(=O)N[C@@H](C)C(=O)N[C@H](C(=O)N[C@@H](CC(C)C)C(N)=O)[C@@H](C)CC)[C@@H](C)CC [NF72] (I: H-[Orn]ILLKALKALAKAIL-NH2 / II: Arachidoyl-HHHHHHYHHG; amide I:1-II:C) |  | >10 |  | almost no effect at physiologic pH, but lysed almost all cells at pH 5.5 |  |  |  | 80 | less hemolytic than that of other peptides | 40 | higher GFP signal when compared to complexes formed with peptides with less histidines in sequence | low accessibility of siRNA | significantly less efficient than other compared CPPs | 34
3 | HHHHYHHGO^eILLKALKALAKAIL [NF700, group H6; without fatty acid; C-terminally amidated] |  |  |  |  |  | exceed 500 nm |  | 6 |  |  |  |  | do not reveal any significant luciferase silencing activity | 
4 | HHHHYHHGO^eILLKALKALAKAIL [NF703, group H6; C22 saturated fatty acid on N-terminus; C-terminally amidated] |  |  |  |  |  | 10-20 nm |  | 73 |  |  |  |  | RNA interference effect decreases again | 
